Assay results as given in BindingDB's records for doi:10.1021/cb800162x (Yale University, 2008).

Assays:
[1] = target: T1, Heat shock protein HSP 90-beta (Homo sapiens, UniProt P08238); assay: Cell Proliferation Assay; details: 37 °C
Description: Cell assay using BT474, SKBR3 and MCF-12F cell lines measured by WST-1 colorimetric cell proliferation assay.

[2] = target: T1, Heat shock protein HSP 90-beta; assay: AlphaScreen Assay
Description: AlphaScreen technology based high-throughput (ALPHA) assay is used to identify inhibitors of Hsp90-TPR2A interaction.

T1 sequence (P08238 whole entry): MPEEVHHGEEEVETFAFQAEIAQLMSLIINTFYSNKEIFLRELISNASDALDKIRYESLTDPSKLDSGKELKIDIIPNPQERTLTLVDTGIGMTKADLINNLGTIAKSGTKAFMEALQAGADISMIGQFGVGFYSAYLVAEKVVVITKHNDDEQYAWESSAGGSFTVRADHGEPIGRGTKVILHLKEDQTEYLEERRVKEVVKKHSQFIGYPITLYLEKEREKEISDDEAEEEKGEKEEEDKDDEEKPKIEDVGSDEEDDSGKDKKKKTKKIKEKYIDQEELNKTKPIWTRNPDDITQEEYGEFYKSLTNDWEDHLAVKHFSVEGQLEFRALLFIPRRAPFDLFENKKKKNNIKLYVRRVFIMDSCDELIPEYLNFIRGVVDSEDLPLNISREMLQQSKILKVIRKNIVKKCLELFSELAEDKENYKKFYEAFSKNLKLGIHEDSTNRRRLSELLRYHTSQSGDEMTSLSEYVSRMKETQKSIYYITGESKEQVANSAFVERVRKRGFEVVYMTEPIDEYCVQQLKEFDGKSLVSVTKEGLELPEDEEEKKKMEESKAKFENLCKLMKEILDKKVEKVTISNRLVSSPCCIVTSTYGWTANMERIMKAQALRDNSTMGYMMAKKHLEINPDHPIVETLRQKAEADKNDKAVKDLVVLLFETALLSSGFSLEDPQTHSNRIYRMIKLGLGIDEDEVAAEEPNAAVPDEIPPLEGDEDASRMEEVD

Row | SMILES | EC50 [1] | Kd [2]
1 | Cc1nc2c(=O)n(C)c(=O)nc-2n(C)n1 [1,3,6-Trimethyl-1H-pyrimido[5,4-e][1,2,4]triazine-5,7-dione] | 946 nM | 492 nM
2 | Cn1nc(-c2ccccc2)nc2c(=O)n(C)c(=O)nc1-2 [1,6-dimethyl-3-phenyl-1H,5H,6H,7H-pyrimido[5,4-e][1,2,4]triazine-5,7-dione, 10] | 690 nM | 585 nM
3 | CCCc1nc2c(=O)n(C)c(=O)nc-2n(C)n1 [1,6-dimethyl-3-propyl-pyrimido[5,4-e][1,2,4]triazine-5,7-dione] | 917 nM | 414 nM
4 | CCn1nc(-c2ccccc2)nc2c(=O)n(C)c(=O)nc1-2 [1-Ethyl-6-methyl-3-phenyl-1H-pyrimido[5,4-e][1,2,4]triazine-5,7-dione] | 1720 nM | 360 nM
5 | CCn1nc(-c2cccs2)nc2c(=O)n(C)c(=O)nc1-2 [1-ethyl-6-methyl-3-thiophen-2-yl-pyrimido[5,4-e][1,2,4]triazine-5,7-dione] | 1210 nM | 365 nM
6 | CCn1nc(Cc2ccccc2)nc2c(=O)n(C)c(=O)nc1-2 [3-benzyl-1-ethyl-6-methyl-1H,5H,6H,7H-pyrimido[5,4-e][1,2,4]triazine-5,7-dione, 13] | 4270 nM | 182 nM
